Laboratory results as given in ChEMBL document CHEMBL4823319, “Design, synthesis, and biological evaluation of potent 1,2,3,4-tetrahydroisoquinoline derivatives as anticancer agents targeting NF-κB signaling pathway” (Bioorg Med Chem, 2021).
Calls of active or inactive are those of the source. The rule behind the calls is not given here.

Tests used:
[1] = system: NUGC-3; test: Anticancer activity against human […] cells assessed as growth inhibition incubated for 48 hrs by sulforhodamine B method; assay type: functional
[2] = Inhibition of NF-kappaB transcriptional activity in mouse RAW264.7 cells harbouring NF-kappaB-SEAP-NPT reporter plasmid assessed as reduction in LPS-induced SEAP expression incubated for 16 hr with LPS; assay type: cell-based
[3] = system: ACHN; test: Anticancer activity against human […] cells assessed as growth inhibition incubated for 48 hrs by sulforhodamine B method; assay type: functional
[4] = system: HCT-15; test: Anticancer activity against human HCT-15 cells assessed as growth inhibition incubated for 48 hrs by sulforhodamine B method; assay type: functional
[5] = system: NCI-H23; test: Anticancer activity against human NCI-H23 cells assessed as growth inhibition incubated for 48 hrs by sulforhodamine B method; assay type: functional
[6] = system: PC-3; test: Anticancer activity against human PC-3 cells assessed as growth inhibition incubated for 48 hrs by sulforhodamine B method; assay type: functional
[7] = system: MDA-MB-231; test: Anticancer activity against human MDA-MB-231 cells assessed as growth inhibition incubated for 48 hrs by sulforhodamine B method; assay type: functional
[8] = system: MDA-MB-231; test: Inhibition of NF-kappaB in human MDA-MB-231 cells assessed as reduction in LPS-induced NF-kappaB nuclear translocation at 10 uM treated with LPS for 24 hrs by immunocytochemical analysis; assay type: cell-based
[9] = system: MDA-MB-231; test: Inhibition of NF-kappaB in human MDA-MB-231 cells assessed as reduction in LPS-induced NF-kappaB nuclear translocation at 10 uM treated with LPS for 24 hrs by Western blotting analysis; assay type: cell-based

Compound: O=C(Nc1ccc(C(F)(F)F)cc1)c1nccc2ccccc12
- GI50 [1]: > 10 µM

Compound: COc1cc2c(cc1O)CCC(C(=O)Nc1ccccc1)O2 (stereo unspecified)
- IC50 [2]: 40.4 µM

Compound: O=C(Nc1ccc(C(F)(F)F)cc1)C1c2ccccc2CCN1C(=O)c1ccc(Cl)cc1 (stereo unspecified)
- GI50 [3]: 3.47 µM
- GI50 [4]: 5.11 µM
- GI50 [5]: 3340 nM
- GI50 [6]: 4.49 µM
- GI50 [7]: 4.35 µM
- GI50 [1]: 4.2 µM

Compound: COc1ccccc1NC(=O)C1NCCc2ccccc21 (stereo unspecified)
- GI50 [1]: > 10 µM

Compound: COc1ccc(NC(=O)c2nccc3ccccc23)cc1
- GI50 [1]: > 10 µM

Compound: O=C(Nc1ccc(O)cc1)C1NCCc2ccccc21 (stereo unspecified)
- GI50 [3]: 5.32 µM
- GI50 [4]: 5.73 µM
- GI50 [5]: 3390 nM
- GI50 [6]: 4.25 µM
- GI50 [7]: 5.05 µM
- GI50 [1]: 4.37 µM

Compound: O=C(Nc1ccccc1O)C1c2ccccc2CCN1C(=O)c1ccc(Cl)cc1 (stereo unspecified)
- GI50 [1]: > 10 µM

Compound: O=C(Nc1ccc(Cl)cc1)c1nccc2ccccc12
- GI50 [1]: > 10 µM

Compound: COc1cccc(NC(=O)C2NCCc3ccccc32)c1 (stereo unspecified)
- GI50 [1]: > 10 µM

Compound: O=C(Nc1ccc(O)cc1)c1nccc2ccccc12
- GI50 [1]: > 10 µM

Compound: O=C(Nc1cc(C(F)(F)F)cc(C(F)(F)F)c1)C1c2ccccc2CCN1C(=O)c1ccc(Cl)cc1 (stereo unspecified)
- GI50 [3]: 2.65 µM
- GI50 [4]: 3.52 µM
- GI50 [5]: 2020 nM
- GI50 [6]: 2.56 µM
- GI50 [7]: 2.71 µM
- GI50 [1]: 2.83 µM

Compound: O=C(Nc1ccccc1C(F)(F)F)C1NCCc2ccccc21 (stereo unspecified)
- GI50 [1]: > 10 µM

Compound: O=C(Nc1ccc(C(F)(F)F)cc1)C1NCCc2ccccc21 (stereo unspecified)
- GI50 [3]: 5.2 µM
- GI50 [4]: 5.44 µM
- GI50 [5]: 4400 nM
- GI50 [6]: 6.59 µM
- GI50 [7]: 4.74 µM
- GI50 [1]: 4.22 µM

Compound: COc1ccc(NC(=O)C2NCCc3ccccc32)cc1 (stereo unspecified)
- GI50 [1]: > 10 µM

Compound: COc1ccccc1NC(=O)C1c2ccccc2CCN1C(=O)c1ccc(Cl)cc1 (stereo unspecified)
- inhibition [8]: Active
- GI50 [3]: 1.98 µM
- GI50 [4]: 1.74 µM
- GI50 [5]: 1940 nM
- GI50 [6]: 2.01 µM
- GI50 [7]: 2.28 µM
- inhibition [9]: Dose-Dependent Effect
- GI50 [1]: 1.59 µM

Compound: COc1cccc(NC(=O)c2nccc3ccccc23)c1
- GI50 [1]: > 10 µM

Compound: O=C(Nc1cccc(C(F)(F)F)c1)C1c2ccccc2CCN1C(=O)c1ccc(Cl)cc1 (stereo unspecified)
- GI50 [1]: > 10 µM

Compound: COc1cccc(NC(=O)C2c3ccccc3CCN2C(=O)c2ccc(Cl)cc2)c1 (stereo unspecified)
- GI50 [3]: 2.96 µM
- GI50 [4]: 3.62 µM
- GI50 [5]: 2420 nM
- GI50 [6]: 2.89 µM
- GI50 [7]: 3.21 µM
- GI50 [1]: 2.14 µM

Compound: O=C(Nc1cc(C(F)(F)F)cc(C(F)(F)F)c1)C1NCCc2ccccc21 (stereo unspecified)
- GI50 [1]: > 10 µM

Compound: O=C(Nc1ccccc1C(F)(F)F)c1nccc2ccccc12
- GI50 [1]: > 10 µM

Compound: O=C(Nc1cccc(O)c1)c1nccc2ccccc12
- GI50 [1]: > 10 µM

Compound: O=C(Nc1cc(C(F)(F)F)cc(C(F)(F)F)c1)c1nccc2ccccc12
- GI50 [1]: > 10 µM

Compound: COc1cccc2c1C(=O)c1c(O)c3c(c(O)c1C2=O)C[C@@](O)(C(=O)CO)C[C@@H]3O[C@H]1C[C@H](N)[C@H](O)[C@H](C)O1 [DOXORUBICIN]
- GI50 [3]: 0.088 µM
- GI50 [4]: 0.076 µM
- GI50 [5]: 72 nM
- GI50 [6]: 0.09 µM
- GI50 [7]: 0.086 µM

Compound: COc1ccc(NC(=O)C2c3ccccc3CCN2C(=O)c2ccc(Cl)cc2)cc1 (stereo unspecified)
- GI50 [3]: 3.67 µM
- GI50 [4]: 6.08 µM
- GI50 [5]: 4340 nM
- GI50 [6]: 3.48 µM
- GI50 [7]: 4.9 µM
- GI50 [1]: 3.63 µM

Compound: O=C(Nc1ccccc1C(F)(F)F)C1c2ccccc2CCN1C(=O)c1ccc(Cl)cc1 (stereo unspecified)
- GI50 [1]: > 10 µM

Compound: COc1ccccc1NC(=O)c1nccc2ccccc12
- GI50 [1]: > 10 µM

Compound: O=C(Nc1cccc(C(F)(F)F)c1)c1nccc2ccccc12
- GI50 [1]: > 10 µM

Compound: O=C(Nc1ccccc1O)c1nccc2ccccc12
- GI50 [1]: > 10 µM

Compound: O=C(Nc1cccc(C(F)(F)F)c1)C1NCCc2ccccc21 (stereo unspecified)
- GI50 [1]: > 10 µM

Compound: O=C(Nc1cccc(Cl)c1)c1nccc2ccccc12
- GI50 [1]: > 10 µM

Compound: O=C(Nc1ccccc1O)C1NCCc2ccccc21 (stereo unspecified)
- GI50 [1]: > 10 µM

Compound: O=C(Nc1ccccc1Cl)c1nccc2ccccc12
- GI50 [1]: > 10 µM

Compound: O=C(Nc1cccc(O)c1)C1NCCc2ccccc21 (stereo unspecified)
- GI50 [1]: > 10 µM

Compound: O=C(Nc1ccc(O)cc1)C1c2ccccc2CCN1C(=O)c1ccc(Cl)cc1 (stereo unspecified)
- GI50 [1]: > 10 µM

Compound: O=C(Nc1cccc(O)c1)C1c2ccccc2CCN1C(=O)c1ccc(Cl)cc1 (stereo unspecified)
- GI50 [1]: > 10 µM
